Tested on: KM-20L2 human colorectal adenocarcinoma
Test: KM-20L2 xenograft model: growth of established KM-20L2 human colorectal tumors in athymic nude mice (tumor volume/weight, % T/C, Fa, Combination Index)
Type: in vivo

Nc1ccn([C@@H]2O[C@H](CO)[C@@H](O)C2(F)F)c(=O)n1 [Gemcitabine, gemcitabine, reference compound]
Mean Fraction Affected (Fa) (Gem 5 mg/kg, Day 9): 0.097
Mean Fraction Affected/Fraction Unaffected (Fa/Fu) (Gem 5 mg/kg, Day 9): 0.107
Mean Tumor Volume (Gem 5 mg/kg, Day 9): 101.0 cubic mm
Mean Tumor Volume Decrease (Gem 5 mg/kg, Day 9): 10.8 cubic mm
Mean Fraction Affected (Fa) (Gem 5 mg/kg, Day 13): 0.178
Mean Fraction Affected/Fraction Unaffected (Fa/Fu) (Gem 5 mg/kg, Day 13): 0.217
Mean Tumor Volume (Gem 5 mg/kg, Day 13): 141.8 cubic mm
Mean Tumor Volume Decrease (Gem 5 mg/kg, Day 13): 30.8 cubic mm
Mean Fraction Affected (Fa) (Gem 5 mg/kg, Day 16): 0.230
Mean Fraction Affected/Fraction Unaffected (Fa/Fu) (Gem 5 mg/kg, Day 16): 0.298
Mean Tumor Volume (Gem 5 mg/kg, Day 16): 204.1 cubic mm
Mean Tumor Volume Decrease (Gem 5 mg/kg, Day 16): 60.9 cubic mm
Mean Fraction Affected (Fa) (Gem 5 mg/kg, Day 20): 0.310
Mean Fraction Affected/Fraction Unaffected (Fa/Fu) (Gem 5 mg/kg, Day 20): 0.449
Mean Tumor Volume (Gem 5 mg/kg, Day 20): 276.8 cubic mm
Mean Tumor Volume Decrease (Gem 5 mg/kg, Day 20): 124.2 cubic mm
Mean Fraction Affected (Fa) (Gem 5 mg/kg, Day 23): 0.295
Mean Fraction Affected/Fraction Unaffected (Fa/Fu) (Gem 5 mg/kg, Day 23): 0.419
Mean Tumor Volume (Gem 5 mg/kg, Day 23): 371.6 cubic mm
Mean Tumor Volume Decrease (Gem 5 mg/kg, Day 23): 155.6 cubic mm
Mean Fraction Affected (Fa) (Gem 5 mg/kg, Day 27): 0.242
Mean Fraction Affected/Fraction Unaffected (Fa/Fu) (Gem 5 mg/kg, Day 27): 0.320
Mean Tumor Volume (Gem 5 mg/kg, Day 27): 506.7 cubic mm
Mean Tumor Volume Decrease (Gem 5 mg/kg, Day 27): 161.9 cubic mm
Mean Fraction Affected (Fa) (Gem 5 mg/kg, Day 30): 0.245
Mean Fraction Affected/Fraction Unaffected (Fa/Fu) (Gem 5 mg/kg, Day 30): 0.325
Mean Tumor Volume (Gem 5 mg/kg, Day 30): 616.2 cubic mm
Mean Tumor Volume Decrease (Gem 5 mg/kg, Day 30): 200.0 cubic mm
Mean Fraction Affected (Fa) (Gem 5 mg/kg, Day 34): 0.295
Mean Fraction Affected/Fraction Unaffected (Fa/Fu) (Gem 5 mg/kg, Day 34): 0.419
Mean Tumor Volume (Gem 5 mg/kg, Day 34): 740.4 cubic mm
Mean Tumor Volume Decrease (Gem 5 mg/kg, Day 34): 309.9 cubic mm
Mean Fraction Affected (Fa) (Gem 5 mg/kg, Day 37): 0.274
Mean Fraction Affected/Fraction Unaffected (Fa/Fu) (Gem 5 mg/kg, Day 37): 0.377
Mean Tumor Volume (Gem 5 mg/kg, Day 37): 877.5 cubic mm
Mean Tumor Volume Decrease (Gem 5 mg/kg, Day 37): 330.5 cubic mm
Mean Fraction Affected (Fa) (Gem 5 mg/kg, Day 41): 0.253
Mean Fraction Affected/Fraction Unaffected (Fa/Fu) (Gem 5 mg/kg, Day 41): 0.339
Mean Tumor Volume (Gem 5 mg/kg, Day 41): 1075.3 cubic mm
Mean Tumor Volume Decrease (Gem 5 mg/kg, Day 41): 364.1 cubic mm
Mean Fraction Affected (Fa) (Gem 5 mg/kg, Day 43): 0.226
Mean Fraction Affected/Fraction Unaffected (Fa/Fu) (Gem 5 mg/kg, Day 43): 0.291
Mean Tumor Volume (Gem 5 mg/kg, Day 43): 1244.3 cubic mm
Mean Tumor Volume Decrease (Gem 5 mg/kg, Day 43): 362.4 cubic mm
Mean Fraction Affected (Fa) (Gem 10 mg/kg, Day 9): 0.084
Mean Fraction Affected/Fraction Unaffected (Fa/Fu) (Gem 10 mg/kg, Day 9): 0.092
Mean Tumor Volume (Gem 10 mg/kg, Day 9): 102.4 cubic mm
Mean Tumor Volume Decrease (Gem 10 mg/kg, Day 9): 9.4 cubic mm
Mean Fraction Affected (Fa) (Gem 10 mg/kg, Day 13): 0.184
Mean Fraction Affected/Fraction Unaffected (Fa/Fu) (Gem 10 mg/kg, Day 13): 0.225
Mean Tumor Volume (Gem 10 mg/kg, Day 13): 140.9 cubic mm
Mean Tumor Volume Decrease (Gem 10 mg/kg, Day 13): 31.7 cubic mm
Mean Fraction Affected (Fa) (Gem 10 mg/kg, Day 16): 0.362
Mean Fraction Affected/Fraction Unaffected (Fa/Fu) (Gem 10 mg/kg, Day 16): 0.568
Mean Tumor Volume (Gem 10 mg/kg, Day 16): 169.0 cubic mm
Mean Tumor Volume Decrease (Gem 10 mg/kg, Day 16): 96.0 cubic mm
Mean Fraction Affected (Fa) (Gem 10 mg/kg, Day 20): 0.422
Mean Fraction Affected/Fraction Unaffected (Fa/Fu) (Gem 10 mg/kg, Day 20): 0.731
Mean Tumor Volume (Gem 10 mg/kg, Day 20): 231.7 cubic mm
Mean Tumor Volume Decrease (Gem 10 mg/kg, Day 20): 169.3 cubic mm
Mean Fraction Affected (Fa) (Gem 10 mg/kg, Day 23): 0.410
Mean Fraction Affected/Fraction Unaffected (Fa/Fu) (Gem 10 mg/kg, Day 23): 0.694
Mean Tumor Volume (Gem 10 mg/kg, Day 23): 311.2 cubic mm
Mean Tumor Volume Decrease (Gem 10 mg/kg, Day 23): 216.0 cubic mm
Mean Fraction Affected (Fa) (Gem 10 mg/kg, Day 27): 0.376
Mean Fraction Affected/Fraction Unaffected (Fa/Fu) (Gem 10 mg/kg, Day 27): 0.602
Mean Tumor Volume (Gem 10 mg/kg, Day 27): 417.4 cubic mm
Mean Tumor Volume Decrease (Gem 10 mg/kg, Day 27): 251.2 cubic mm
Mean Fraction Affected (Fa) (Gem 10 mg/kg, Day 30): 0.388
Mean Fraction Affected/Fraction Unaffected (Fa/Fu) (Gem 10 mg/kg, Day 30): 0.634
Mean Tumor Volume (Gem 10 mg/kg, Day 30): 499.5 cubic mm
Mean Tumor Volume Decrease (Gem 10 mg/kg, Day 30): 316.7 cubic mm
Mean Fraction Affected (Fa) (Gem 10 mg/kg, Day 34): 0.388
Mean Fraction Affected/Fraction Unaffected (Fa/Fu) (Gem 10 mg/kg, Day 34): 0.635
Mean Tumor Volume (Gem 10 mg/kg, Day 34): 642.3 cubic mm
Mean Tumor Volume Decrease (Gem 10 mg/kg, Day 34): 408.0 cubic mm
Mean Fraction Affected (Fa) (Gem 10 mg/kg, Day 37): 0.401
Mean Fraction Affected/Fraction Unaffected (Fa/Fu) (Gem 10 mg/kg, Day 37): 0.669

Reference: patent publication US20060134102A1, “Lymphotoxin beta receptor agents in combination with chemotherapeutic agents” (Biogen Idec MA Inc., priority 2002, published 2006)
